Results on one molecule are retold here after article PMC9673926, “Nucleotide binding as an allosteric regulatory mechanism for Akkermansia muciniphila β-N-acetylhexosaminidase Am2136” (Gut Microbes, 2022).

Experiment in all cases: Nucleotide binding affinity by intrinsic fluorescence, mutant
Design in all cases: The coding region (residue Q20-L756) of Am2136 without signal peptide was based on UniProt; 6XHis (N); made in house; host or cells: E. coli BL21 (DE3)

One assay has as its target T1, Am2136 R592A (Akkermansia muciniphila, UniProt B2UPR7, R592A).
T1 sequence (B2UPR7 20-756 R592A): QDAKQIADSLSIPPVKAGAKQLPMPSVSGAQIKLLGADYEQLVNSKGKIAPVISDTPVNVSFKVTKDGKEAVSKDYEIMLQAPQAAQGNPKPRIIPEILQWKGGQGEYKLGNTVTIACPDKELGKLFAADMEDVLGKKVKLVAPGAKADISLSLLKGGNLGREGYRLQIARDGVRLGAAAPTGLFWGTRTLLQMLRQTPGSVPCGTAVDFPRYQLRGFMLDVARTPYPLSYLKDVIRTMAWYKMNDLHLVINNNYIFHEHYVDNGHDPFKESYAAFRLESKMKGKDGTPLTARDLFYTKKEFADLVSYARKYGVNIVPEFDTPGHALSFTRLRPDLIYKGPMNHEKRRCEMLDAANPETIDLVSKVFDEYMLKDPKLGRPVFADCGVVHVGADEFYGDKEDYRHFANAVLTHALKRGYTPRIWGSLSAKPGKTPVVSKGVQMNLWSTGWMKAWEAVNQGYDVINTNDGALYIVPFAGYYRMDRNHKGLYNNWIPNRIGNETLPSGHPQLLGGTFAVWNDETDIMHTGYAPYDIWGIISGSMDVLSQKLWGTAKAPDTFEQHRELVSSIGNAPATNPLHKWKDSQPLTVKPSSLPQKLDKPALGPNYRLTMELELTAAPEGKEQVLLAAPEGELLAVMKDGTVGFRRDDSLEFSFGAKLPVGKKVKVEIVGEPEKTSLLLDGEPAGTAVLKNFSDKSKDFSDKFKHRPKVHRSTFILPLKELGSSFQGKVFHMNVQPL
As for the experimental part:
(§1) The nucleotide binding ability was determined on Fluorescence Spectrometer Duetta (HORIBA) by measuring the change of peak intensity. The fluorescence was excited at 286 nm and emitted at 336 nm. And the measurement was processed under 400 V voltage with 2.5 nm excitation slit and 5 nm emission slit. The 120 μL reaction mixture contains 0–550 μM nucleotide, 5 μM proteins, 25 mM Tris pH 8.0 and 150 mM NaCl. The sample was incubated at 4°C for 5 min before testing.

The target of the next assay is T2, Am2136 R256A (Akkermansia muciniphila, UniProt B2UPR7, R256A).
T2 sequence (B2UPR7 20-756 R256A): T1 sequence (B2UPR7 20-756 R592A) with R237A, A573R
As for the experimental part: as §1

Another assay has as its target T3, Am2136 E649A (Akkermansia muciniphila, UniProt B2UPR7, E649A).
T3 sequence (B2UPR7 20-756 E649A): T1 sequence (B2UPR7 20-756 R592A) with A573R, E630A
As for the experimental part: as §1

The structures appear in SMILES notation. Where a chain is given by its changes, count along the chain named.

On to `Nc1nc2c(ncn2[C@@H]2O[C@H](COP(=O)(O)OP(=O)(O)O)[C@@H](O)[C@H]2O)c(=O)[nH]1` [GDP], for which the dissociation constant Kd on Am2136 R592A worked out at 120 ± 5.82 µM; at Am2136 R256A, 158 ± 10.9 µM; at Am2136 E649A it was 236 µM.

In general, Kd refers to the free concentration of one partner at which half of the binding sites on the other are occupied at equilibrium, for simple one-to-one binding. Low values mean higher affinity, high ones lower affinity.
